Experimental data published in PMC9527238, “Glutamate and GABAA receptor crosstalk mediates homeostatic regulation of neuronal excitation in the mammalian brain” (Signal Transduction and Targeted Therapy, 2022).

Experiments:
[1] = target: T1, GABAAR-mediated currents, β2E181G KI mice (Mus musculus, UniProt P63137, E206G); assay: Whole-cell recording of CA1 neurons, hippocampal slices of homozygous β2E181G KI mice; assay type: cell-based; conditions: L-Glu 50 µM; KI slices
T1 construct: from tissue; host or cells: acute hippocampal slices of homozygous β2E181G knock-in mice (C57BL/6J), CA1 neurons
Experimental: (§1) We next determined if glutamate-mediated allosteric potentiation of GABAAR function was impaired in hippocampal slices acutely prepared from postnatal 90-day-old KI mice. Whole-cell recordings of CA1 neurons were performed under voltage clamp configuration at a holding potential of −60 mV.
(§2) Mice were deeply anesthetized with urethane (1.5 g/kg, i.p.) and transcardially perfused with ice cold sucrose hypertonic cutting solution (in mM: KCl 3.0, NaH2PO4.H2O 1.25, NaHCO3 26, Na-vitamin C 0.4, Na-lactate 2.0, Na-pyruvate 2.0, D-glucose 10.0, Sucrose 220, CaCl2 0.1, MgCl2 2, MgSO4 4.0, pH 7.4, 290–300 mOsm/l) prior to decapitation as described previously.[47] After decapitation, the brain was rapidly removed and transferred to the ice cold cutting solution bubbled with 95% O2 and 5% CO2, and acute coronal brain slices (400 μm) were prepared on a Leica vibratome (VT1200S, Germany). All brain slices were placed into a standard artificial cerebral spinal fluid (ACSF) (in mM: NaCl 124, KCl 2.8, NaH2PO4.H2O 1.25, NaHCO3 26, Na-vitamin C 0.4, Na-lactate 2.0, Na-pyruvate 2.0, D-glucose 10.0, CaCl2 2, MgSO4 1.2, pH 7.4, 290–300 mOsm/l) incubated at 35 °C for 2 h prior to recording. Field excitatory postsynaptic potential (fEPSP) recordings were performed under current-clamp mode using HEKA EPC10 patch-clamp amplifier (HEKA Electronic, Lambrecht/Pfalz, Germany). […]

α2/β2/γ2 GABAARs = target: T2, α2/β2/γ2 GABAARs (Rattus norvegicus, UniProt P23576+P63138); assay: Patch clamp, HEK293, α2-containing GABAAR; assay type: cell-based; conditions: wild-type α2/β2/γ2
T2 construct: expressed in transfected cells; host or cells: HEK293

[2] = tested on: GABAAR-mediated currents, WT mice; assay: Whole-cell recording of CA1 neurons, hippocampal slices of WT mice; assay type: cell-based, mouse; conditions: L-Glu 50 µM
Experimental: as §1, §2

αK104D,E137Gβ GABAAR = target: T3, αK104D,E137Gβ GABAAR (Rattus norvegicus, UniProt P62813+P63138, E164G/K131D); assay: Patch clamp, HEK293, double mutant α1β2 GABAAR; assay type: cell-based; conditions: HEK293, read-out: Glutamate potentiation of GABA currents, % of control, normalized to wild-type α1β2
T3 construct: expressed in transfected cells; host or cells: HEK293
From the text: (§3) The subunits are color-coded individually. The boxed regions are further enlarged in the middle panels, highlighting the predicted glutamate binding pocket in the α+ and β− interface, just below the loop C. […] Relative potentiation was obtained by normalizing potentiation observed in the mutated receptor to that in the respective wild-type receptor.
(§4) To further investigate the characteristics of these four residues, double amino acid substitutions were introduced at residue pairs that are located at different (α1β2) subunits (Fig. 3f and Supplementary Fig. S6b).
(§5) HEK293 cells were cultured in DMEM (Invitrogen) supplemented with 10% fetal bovine serum. Cells were grown to 40–60% confluence and transiently transfected using Lipofectamine 2000 (Invitrogen) with 1:0.5–1 plasmid/lipid ratio. Cells were transfected with a pBK-CMV expression vector containing a rat recombinant GABAAR α, β or γ subunits. Co-transections were done with a plasmid ratio of 1:1 αβ and 2:2:1 for αβγ subunit combinations, respectively. pcDNA3.1-GFP was also co-transfected along with GABAAR subunits as a transfected marker in order to facilitate the visualization of the transfected cells during electrophysiological experiments. Cells were re-plated on glass coverslips after 15–20 h transfection and were cultured for an additional 15–24 h before whole-cell patch-clamp recordings.
(§6) The site-directed mutagenesis of α, β or γ subunits were performed by using the QuikChange method (Stratagene). […] Wild-type or mutant subunits were transfected in HEK293 cells and subjected to electrophysiology examinations.
(§7) Whole-cell patch-clamp recordings were performed under voltage-clamp mode using an Axopatch 200B or 1D patch-clamp amplifier (Molecular Devices) on HEK293 cells and cultured neurons. Whole-cell currents were recorded at a holding potential of −60 mV, and signals were filtered at 2 kHz, digitized at 10 kHz (Digidata 1322 A). Recording pipettes (3–5 MΩ) were filled with the intracellular solution that contained (mM): CsCl 140, HEPES 10, Mg-ATP 4, QX-314 5, pH 7.20; osmolarity, 290–295 mOsm. BAPTA (10 mM) was added in the intracellular solution.

αE137GβE181G GABAAR = target: T4, αE137GβE181G GABAAR (Rattus norvegicus, UniProt P62813+P63138, E164G/E206G); assay: Patch clamp, HEK293, double mutant α1β2 GABAAR; assay type: cell-based; conditions: HEK293, read-out: Glutamate potentiation of GABA currents, % of control, normalized to wild-type α1β2
T4 construct: expressed in transfected cells; host or cells: HEK293
From the text: as §3, §4, §5, §6, §7

[3] = target: T5, αK104βE181G GABAAR (α1 K104D and β2 E181G) (Rattus norvegicus, UniProt P62813+P63138, E206G/K131D); assay: Patch clamp, HEK293, double mutant α1β2 GABAAR; assay type: cell-based; conditions: HEK293, read-out: Glutamate potentiation of GABA currents, % of control, normalized to wild-type α1β2
T5 construct: expressed in transfected cells; host or cells: HEK293
From the text: as §3, §4, §5, §6, §7

α1/β1/γ2 GABAAR = target: T6, α1/β1/γ2 GABAAR (Rattus norvegicus, UniProt P15431+P62813); assay: Patch clamp, HEK293, β1-containing GABAAR; assay type: cell-based; conditions: wild-type α1/β1/γ2
T6 construct: expressed in transfected cells; host or cells: HEK293

α1β2γ2R197E GABAAR = target: T7, α1β2γ2R197E GABAAR (Rattus norvegicus, UniProt P18508+P62813+P63138, R235E); assay: Patch clamp, HEK293, mutant GABAAR; assay type: cell-based
T7 construct: expressed in transfected cells; host or cells: HEK293
Experimental: However, for the GABAAR containing only α and β subunits, there are two α^+/β^− interfaces, with potentially two glutamate-binding pockets (Fig. 5a; Right).
as §5, §6
as §7, with “solution. The coverslips were continuously superfused with the extracellular solution containing (mM): NaCl 140, KCl 5.4, HEPES 10, MgCl2 1.0, CaCl2 1.3, glucose 20, pH 7.4; osmolarity, 305–315 mOsm. […] Dose–response curves were created by fitting data to Hill equation: I = Imax/[1 + (EC50/[A])^n], where I is the current, Imax is the maximum current, [A] is a given concentration of agonist, n is the Hill coefficient. […] All experiments were performed at room temperature.” for “solution.”

T7 sequence (P62813 28-455): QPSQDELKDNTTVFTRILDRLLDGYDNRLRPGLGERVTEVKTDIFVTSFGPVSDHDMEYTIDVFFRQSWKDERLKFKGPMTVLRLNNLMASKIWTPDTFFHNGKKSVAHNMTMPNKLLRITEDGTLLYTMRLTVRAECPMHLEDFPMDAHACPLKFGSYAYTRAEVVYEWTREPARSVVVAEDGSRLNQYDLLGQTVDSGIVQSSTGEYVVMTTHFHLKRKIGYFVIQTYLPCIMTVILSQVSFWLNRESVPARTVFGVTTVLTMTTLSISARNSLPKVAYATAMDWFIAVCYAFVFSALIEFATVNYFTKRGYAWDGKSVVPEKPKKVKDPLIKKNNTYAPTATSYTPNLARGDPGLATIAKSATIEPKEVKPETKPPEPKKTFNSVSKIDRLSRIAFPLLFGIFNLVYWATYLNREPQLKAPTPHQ
T7 sequence (P63138 26-474): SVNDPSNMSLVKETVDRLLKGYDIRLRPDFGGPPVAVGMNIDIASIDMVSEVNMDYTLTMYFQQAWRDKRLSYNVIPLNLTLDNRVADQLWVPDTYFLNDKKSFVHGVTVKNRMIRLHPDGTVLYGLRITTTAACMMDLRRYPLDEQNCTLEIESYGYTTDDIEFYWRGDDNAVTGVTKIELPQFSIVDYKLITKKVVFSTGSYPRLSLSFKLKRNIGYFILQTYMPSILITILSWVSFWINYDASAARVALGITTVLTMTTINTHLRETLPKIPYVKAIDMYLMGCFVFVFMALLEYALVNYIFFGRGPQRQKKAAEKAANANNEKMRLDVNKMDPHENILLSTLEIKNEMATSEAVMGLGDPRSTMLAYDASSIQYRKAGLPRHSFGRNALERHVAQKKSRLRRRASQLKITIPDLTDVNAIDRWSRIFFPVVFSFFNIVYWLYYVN
T7 sequence (P18508 39-466 R235E): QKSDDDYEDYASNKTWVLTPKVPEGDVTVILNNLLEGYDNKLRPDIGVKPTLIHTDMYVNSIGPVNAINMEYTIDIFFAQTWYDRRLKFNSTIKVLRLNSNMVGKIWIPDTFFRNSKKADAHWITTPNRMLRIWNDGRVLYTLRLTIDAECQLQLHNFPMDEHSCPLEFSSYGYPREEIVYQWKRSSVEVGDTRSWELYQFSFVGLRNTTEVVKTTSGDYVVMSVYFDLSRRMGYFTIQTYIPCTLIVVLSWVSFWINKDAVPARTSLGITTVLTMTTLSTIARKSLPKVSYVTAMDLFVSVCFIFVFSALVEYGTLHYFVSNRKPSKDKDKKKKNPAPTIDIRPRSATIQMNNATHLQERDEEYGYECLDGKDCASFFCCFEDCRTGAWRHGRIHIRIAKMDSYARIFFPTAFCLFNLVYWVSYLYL
T5 sequence (P62813 28-455 K131D): as the sequence (P62813 28-455) above, with K104D counted along it
T5 sequence (P63138 26-474 E206G): as the sequence (P63138 26-474) above, with E181G counted along it
T3 sequence (P62813 28-455 K131D/E164G): as the sequence (P62813 28-455) above, with K104D, E137G counted along it
T3 sequence (P63138 25-474 limits assumed): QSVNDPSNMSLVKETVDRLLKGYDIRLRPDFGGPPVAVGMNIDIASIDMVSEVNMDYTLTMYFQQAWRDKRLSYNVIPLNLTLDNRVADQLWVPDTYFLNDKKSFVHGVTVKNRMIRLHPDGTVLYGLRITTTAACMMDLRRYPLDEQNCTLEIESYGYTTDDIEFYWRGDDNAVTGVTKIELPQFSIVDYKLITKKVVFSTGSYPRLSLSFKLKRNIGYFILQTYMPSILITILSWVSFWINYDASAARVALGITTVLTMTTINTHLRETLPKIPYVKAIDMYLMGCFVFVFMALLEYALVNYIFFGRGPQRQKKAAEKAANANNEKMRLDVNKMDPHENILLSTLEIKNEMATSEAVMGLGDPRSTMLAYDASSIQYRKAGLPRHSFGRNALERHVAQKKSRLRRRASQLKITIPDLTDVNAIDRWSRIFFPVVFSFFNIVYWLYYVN
T4 sequence (P62813 28-455 E164G): as the sequence (P62813 28-455) above, with E137G counted along it
T4 sequence (P63138 26-474 E206G): as the sequence (P63138 26-474) above, with E181G counted along it
T6 sequence (P62813 28-455): as the sequence (P62813 28-455) above
T6 sequence (P15431 26-474): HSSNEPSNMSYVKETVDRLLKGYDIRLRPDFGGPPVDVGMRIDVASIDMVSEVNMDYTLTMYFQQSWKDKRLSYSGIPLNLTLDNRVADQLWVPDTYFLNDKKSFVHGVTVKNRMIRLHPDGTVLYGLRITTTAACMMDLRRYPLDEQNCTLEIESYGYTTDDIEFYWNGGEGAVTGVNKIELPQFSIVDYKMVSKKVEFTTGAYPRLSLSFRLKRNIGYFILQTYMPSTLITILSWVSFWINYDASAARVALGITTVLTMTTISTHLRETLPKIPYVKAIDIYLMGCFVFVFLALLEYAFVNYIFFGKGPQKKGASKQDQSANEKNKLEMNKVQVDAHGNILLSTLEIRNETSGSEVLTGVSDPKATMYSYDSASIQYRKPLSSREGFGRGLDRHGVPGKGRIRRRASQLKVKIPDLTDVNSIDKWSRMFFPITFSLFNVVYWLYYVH
T6 sequence (P18508 39-466 partner): as the sequence (P18508 39-466 R235E) above, with E197R counted along it
T2 sequence (P23576 29-451): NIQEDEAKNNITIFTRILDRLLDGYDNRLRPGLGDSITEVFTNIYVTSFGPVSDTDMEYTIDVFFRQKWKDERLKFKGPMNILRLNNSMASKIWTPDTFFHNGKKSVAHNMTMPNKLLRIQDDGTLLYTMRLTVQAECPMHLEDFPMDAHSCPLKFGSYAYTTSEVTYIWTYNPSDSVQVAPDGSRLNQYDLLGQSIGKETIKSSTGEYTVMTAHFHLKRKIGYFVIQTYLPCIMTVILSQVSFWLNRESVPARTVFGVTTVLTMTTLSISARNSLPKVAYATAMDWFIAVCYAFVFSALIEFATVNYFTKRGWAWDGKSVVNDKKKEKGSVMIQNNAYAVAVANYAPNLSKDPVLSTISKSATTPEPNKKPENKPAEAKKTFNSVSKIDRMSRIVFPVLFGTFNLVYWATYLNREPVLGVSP
T2 sequence (P63138 26-474): as the sequence (P63138 26-474) above
T2 sequence (P18508 39-466 partner): as the sequence (P18508 39-466 R235E) above, with E197R counted along it
T1 sequence (P63137 26-512 E206G): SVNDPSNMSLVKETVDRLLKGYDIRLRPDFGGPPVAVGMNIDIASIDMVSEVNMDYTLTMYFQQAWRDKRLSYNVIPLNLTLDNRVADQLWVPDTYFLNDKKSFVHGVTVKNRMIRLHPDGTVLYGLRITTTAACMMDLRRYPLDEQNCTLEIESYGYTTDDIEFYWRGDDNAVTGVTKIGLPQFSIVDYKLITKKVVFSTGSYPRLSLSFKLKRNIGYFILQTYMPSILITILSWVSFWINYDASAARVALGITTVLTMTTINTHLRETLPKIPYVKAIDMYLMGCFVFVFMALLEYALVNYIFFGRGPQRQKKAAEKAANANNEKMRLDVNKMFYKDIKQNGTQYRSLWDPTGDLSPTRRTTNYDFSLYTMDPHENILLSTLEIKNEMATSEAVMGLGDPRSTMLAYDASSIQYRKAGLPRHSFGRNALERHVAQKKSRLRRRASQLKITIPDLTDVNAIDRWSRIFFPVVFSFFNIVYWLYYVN

SMILES: N[C@@H](CCC(=O)O)C(=O)O [glutamate, Glutamate]
- eIPSCs relative to baseline [1]: 114.2 ± 9.9%
- potentiation of GABA currents by glutamate (α2/β2/γ2 GABAARs): capable of potentiating GABA currents
- GABAAR-mediated IPSC currents relative to baseline [2]: 153.0 ± 9.5%
- activity at 100 µM (αK104D,E137Gβ GABAAR; glutamate 100 μM): 17.3 ± 12.9%
- activity at 1000 µM (αK104D,E137Gβ GABAAR; glutamate 1 mM): 45.9 ± 20.9%
- activity at 100 µM (αE137GβE181G GABAAR; glutamate 100 μM): 9.2 ± 3%
- activity at 1000 µM (αE137GβE181G GABAAR; glutamate 1 mM): 16.2 ± 1.3%
- activity at 100 µM ([3]; glutamate 100 μM): 6.6%
- activity at 1000 µM ([3]; glutamate 1 mM): 27.4 ± 12.6%
- potentiation of GABA-induced currents by glutamate (α1/β1/γ2 GABAAR): could also potentiate GABA-induced currents
- Glu-induced potentiation, % of wild-type α1β2 (α1β2γ2R197E GABAAR; Glu 100 μM): 92.7 ± 22.0%
- Glu-induced potentiation, % of wild-type α1β2γ2 (α1β2γ2R197E GABAAR; Glu 100 μM): 204.9 ± 48.7%
- Glu-induced potentiation, % of wild-type α1β2 (α1β2γ2R197E GABAAR; Glu 1 mM): 82.4 ± 16.9%
- Glu-induced potentiation, % of wild-type α1β2γ2 (α1β2γ2R197E GABAAR; Glu 1 mM): 190.9 ± 39.2%
